In ChEMBL document CHEMBL6083249, “The journey of p38 MAP kinase inhibitors: From bench to bedside in treating inflammatory diseases” (Eur J Med Chem, 2024) one finds bioavailability, AUC and IC50 data, which are given here for two compounds.

As a reminder, the bioavailability is the share of a dose that reaches the circulation, judged against a reference dose that is usually intravenous. Usually AUC stands for the area under the concentration-time curve, a measure of exposure. As a reminder, the IC50 is the midpoint of a concentration-inhibition curve.

Series [1] is described as follows: Oral bioavailability in ICR mouse at […] by LC-MS/MS analysis. It is filed as ADME, organism-based. The note with it: in vivo, dose 0.25 mg/kg.
A short description of series [2]: AUC in rat at 30 mg/kg, po. It counts as ADME, organism-based. The note with it: in vivo.
The nature of series [3]: Oral bioavailability in rat at 2 mg/kg by LC-MS/MS analysis. It counts as ADME, organism-based. The following applies: in vivo.
Series [4] addresses Mitogen-activated protein kinase 3 (Homo sapiens, UniProt P27361). Description: Inhibition of ERK1 (unknown origin).
Series [5] has as its target Mitogen-activated protein kinase kinase kinase 7 (Homo sapiens, UniProt O43318). As to the kind of experiment: Inhibition of TAK1 (unknown origin).

Chain of Mitogen-activated protein kinase 3 (P27361 whole entry): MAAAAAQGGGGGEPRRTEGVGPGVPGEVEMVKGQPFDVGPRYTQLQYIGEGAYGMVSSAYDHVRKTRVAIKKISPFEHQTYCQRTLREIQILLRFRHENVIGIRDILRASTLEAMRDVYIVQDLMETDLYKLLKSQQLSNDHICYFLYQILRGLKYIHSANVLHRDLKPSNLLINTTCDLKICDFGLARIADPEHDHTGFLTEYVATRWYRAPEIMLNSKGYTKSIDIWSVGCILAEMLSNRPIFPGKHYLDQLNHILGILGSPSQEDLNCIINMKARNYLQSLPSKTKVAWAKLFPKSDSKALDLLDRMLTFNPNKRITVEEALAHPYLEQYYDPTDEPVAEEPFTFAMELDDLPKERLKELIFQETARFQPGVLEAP
Chain of Mitogen-activated protein kinase kinase kinase 7 (O43318 whole entry): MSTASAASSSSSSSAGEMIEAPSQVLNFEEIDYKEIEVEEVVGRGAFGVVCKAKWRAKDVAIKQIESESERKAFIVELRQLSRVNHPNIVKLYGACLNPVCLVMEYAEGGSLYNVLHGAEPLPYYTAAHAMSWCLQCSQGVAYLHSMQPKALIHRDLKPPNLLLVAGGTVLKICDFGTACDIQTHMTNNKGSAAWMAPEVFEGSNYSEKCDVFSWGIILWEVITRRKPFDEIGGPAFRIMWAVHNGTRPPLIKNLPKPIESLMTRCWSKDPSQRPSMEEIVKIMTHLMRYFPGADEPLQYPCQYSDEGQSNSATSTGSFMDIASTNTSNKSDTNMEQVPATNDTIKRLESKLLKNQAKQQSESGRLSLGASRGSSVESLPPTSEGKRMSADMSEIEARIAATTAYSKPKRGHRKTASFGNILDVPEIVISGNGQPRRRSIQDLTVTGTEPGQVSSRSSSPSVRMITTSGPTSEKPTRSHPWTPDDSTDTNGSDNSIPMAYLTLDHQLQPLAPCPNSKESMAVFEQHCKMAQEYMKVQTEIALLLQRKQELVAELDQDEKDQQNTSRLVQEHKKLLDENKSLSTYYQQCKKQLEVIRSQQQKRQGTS

Compound `Cc1c(F)cc(C(=O)NC2CC2)cc1-c1ccc(C(=O)NCC(C)(C)C)cn1` [LOSMAPIMOD] returned a bioavailability in series [1] of 51%. In series [2], this compound showed an AUC of 220 ng·h/mL.

As to `CCc1nc(-c2cccc(C)c2)c(-c2ccnc(NC(=O)c3ccccc3)c2)s1` [TAK-715], the bioavailability in series [3] came out at 21.1%. For the same compound, the IC50 in series [4] and in series [5] was greater than 10 µM in each case.
